Where two headings read alike, the source gives them in different places.
Molecular target: T1, horseradish peroxidase (HRP) tagged delF508-CFTR (Homo sapiens, UniProt P13569, DEL508-508)
T1 construct: expressed in transfected cells
Assay: Measurement of delF508-CFTR-HRP surface expression in CFBE41o- cells;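 for DelF508-CFTR-HRP Amax %: percent efficacy relative to reference corrector lumacaftor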
Format: cell-based
Details: for Emax: read-out: DelF508-CFTR-HRP Amax %; for EC50: read-out: DelF508-CFTR-HRP EC50
Outline: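 CFBE41o- bronchial epithelial cells stably expressing delF508-CFTR with HRP in the fourth extracellular loop; expression induced 48h with 500 ng/mL doxycycline, then compounds added (top 10 μM, 10-point 3-fold series, ≤0.5% DMSO) for 24h at 37° C. Surface HRP measured by luminescence with cell-impermeant substrate; EC50 from logistic fit of triplicates, plate-normalized to lowest concentration; efficacy also relative to a reference corrector.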

[1] = delF508-CFTR-HRP surface expression, CFBE41o- cells
[2] = CFBE41o- cells, mean of at least two replicates
[3] = CFBE41o- cells, surface expression Amax

T1 sequence (P13569 with tags, fused parts or gaps DEL508-508): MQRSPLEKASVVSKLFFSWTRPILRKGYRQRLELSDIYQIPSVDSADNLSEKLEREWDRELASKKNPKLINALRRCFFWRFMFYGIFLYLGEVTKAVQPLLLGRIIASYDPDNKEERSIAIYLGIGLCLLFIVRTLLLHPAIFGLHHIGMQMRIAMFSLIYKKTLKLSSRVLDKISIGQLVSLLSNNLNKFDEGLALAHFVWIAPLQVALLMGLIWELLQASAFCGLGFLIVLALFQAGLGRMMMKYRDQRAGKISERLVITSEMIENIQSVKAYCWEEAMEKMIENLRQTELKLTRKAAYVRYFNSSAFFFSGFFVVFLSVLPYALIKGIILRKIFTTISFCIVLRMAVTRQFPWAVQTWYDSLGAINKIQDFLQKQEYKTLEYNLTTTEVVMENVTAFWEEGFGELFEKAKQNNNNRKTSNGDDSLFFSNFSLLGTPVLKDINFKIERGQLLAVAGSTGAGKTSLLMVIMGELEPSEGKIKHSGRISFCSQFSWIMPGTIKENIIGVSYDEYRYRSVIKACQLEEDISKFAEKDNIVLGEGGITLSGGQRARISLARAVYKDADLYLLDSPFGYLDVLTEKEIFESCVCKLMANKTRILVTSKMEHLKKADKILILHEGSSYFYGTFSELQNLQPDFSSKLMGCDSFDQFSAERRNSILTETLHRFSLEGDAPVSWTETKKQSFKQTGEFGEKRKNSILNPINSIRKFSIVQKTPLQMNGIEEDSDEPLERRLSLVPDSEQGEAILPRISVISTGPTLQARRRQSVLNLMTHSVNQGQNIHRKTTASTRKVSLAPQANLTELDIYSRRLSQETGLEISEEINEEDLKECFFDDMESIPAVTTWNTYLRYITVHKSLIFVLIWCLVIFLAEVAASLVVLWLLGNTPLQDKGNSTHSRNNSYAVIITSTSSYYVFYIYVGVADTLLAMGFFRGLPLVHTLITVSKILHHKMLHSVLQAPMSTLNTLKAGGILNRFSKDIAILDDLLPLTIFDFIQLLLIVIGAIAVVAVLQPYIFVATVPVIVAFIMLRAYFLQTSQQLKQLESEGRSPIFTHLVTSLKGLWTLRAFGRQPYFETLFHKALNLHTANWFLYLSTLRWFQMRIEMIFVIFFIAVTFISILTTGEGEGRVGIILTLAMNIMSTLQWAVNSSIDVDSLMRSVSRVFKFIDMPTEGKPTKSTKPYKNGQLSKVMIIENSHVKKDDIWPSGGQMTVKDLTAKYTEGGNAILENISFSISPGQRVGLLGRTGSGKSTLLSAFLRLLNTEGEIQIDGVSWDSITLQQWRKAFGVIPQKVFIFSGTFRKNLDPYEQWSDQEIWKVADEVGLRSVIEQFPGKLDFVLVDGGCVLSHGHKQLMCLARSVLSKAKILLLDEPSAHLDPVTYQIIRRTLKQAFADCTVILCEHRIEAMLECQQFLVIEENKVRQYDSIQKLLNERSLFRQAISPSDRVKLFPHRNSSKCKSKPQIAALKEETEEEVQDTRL

| SMILES | Emax [1] [%] | EC50 [1] [nM] | EC50 [2] [nM] | Emax [3] [%] | Emax (CFBE41o-) [%] |
| --- | --- | --- | --- | --- | --- |
| Cc1ccccc1-c1nc(NS(=O)(=O)c2cccc(N[C@H]3C[C@H](C(=O)O)C3)n2)ccc1C(F)(F)F [Example 355, (1r,3r)-3-((6-(N-(6-(o-tolyl)-5-(trifluoromethyl)pyridin-2-yl)sulfamoyl)pyridin-2-yl)amino)cyclobutanecarboxylic Acid] | 140 | 3690 | – | – | – |
| CC1(C(=O)O)CCN(c2cccc(S(=O)(=O)Nc3ccc(C(F)(F)F)c(-c4ccccc4C4CCC4)n3)n2)CC1 [Example 363, 1-(6-(N-(6-(2-cyclobutylphenyl)-5-(trifluoromethyl)pyridin-2-yl)sulfamoyl)pyridin-2-yl)-4-methylpiperidine-4-carboxylic Acid] | 616 | 705 | – | – | – |
| Cc1ccccc1-c1nc(NS(=O)(=O)c2cccc(N[C@H]3CC[C@H](C(=O)O)CC3)n2)ccc1C(F)(F)F [Example 364, (1r,4r)-4-((6-(N-(6-(o-tolyl)-5-(trifluoromethyl)pyridin-2-yl)sulfamoyl)pyridin-2-yl)amino)cyclohexanecarboxylic Acid] | 231 | 1590 | – | – | – |
| Cc1ccccc1-c1nc(NS(=O)(=O)c2cccc(N[C@H]3C[C@](C)(C(=O)O)C3)n2)ccc1C(F)(F)F [Example 365, (1r,3s)-1-methyl-3-[(6-{[6-(2-methylphenyl)-5-(trifluoromethyl)pyridin-2-yl]sulfamoyl}pyridin-2-yl)amino]cyclobutane-1-carboxylic Acid] | 166 | 1890 | – | – | – |
| CCc1ccccc1-c1nc(NS(=O)(=O)c2cccc(N3CCC[C@@H](C(=O)O)C3)n2)ccc1C(F)(F)F [Example 369, (R)-1-(6-(N-(6-(2-ethylphenyl)-5-(trifluoromethyl)pyridin-2-yl)sulfamoyl)pyridin-2-yl)piperidine-3-carboxylic Acid] | 962 | 1720 | – | – | – |
| Cc1ccccc1-c1nc(NS(=O)(=O)c2cccc(NC3CCC(C(=O)O)CC3)n2)ccc1C(F)(F)F (stereo not shown) [Example 372, 4-((6-(N-(6-(o-tolyl)-5-(trifluoromethyl)pyridin-2-yl)sulfamoyl)pyridin-2-yl)amino)cyclohexanecarboxylic Acid] | 554 | 2250 | – | – | – |
| CC(C)c1ccccc1-c1nc(NS(=O)(=O)c2cccc(N3CCC[C@H](C(=O)O)C3)n2)ccc1C(F)(F)F [Example 376, (S)-1-(6-(N-(6-(2-isopropylphenyl)-5-(trifluoromethyl)pyridin-2-yl)sulfamoyl)pyridin-2-yl)piperidine-3-carboxylic Acid] | 629 | 913 | – | – | – |
| CC(C)c1ccccc1-c1nc(NS(=O)(=O)c2cccc(N3CCCC(C)(C(=O)O)C3)n2)ccc1C(F)(F)F (stereo not shown) [Example 377, 1-(6-(N-(6-(2-isopropylphenyl)-5-(trifluoromethyl)pyridin-2-yl)sulfamoyl)pyridin-2-yl)-3-methylpiperidine-3-carboxylic Acid] | – | 738 | – | – | – |
| CC1(C(=O)O)CCN(c2cc(S(=O)(=O)Nc3ccc(C(F)(F)F)c(-c4ccccc4C4CCC4)n3)ccn2)CC1 [Example 378, 1-(4-(N-(6-(2-cyclobutylphenyl)-5-(trifluoromethyl)pyridin-2-yl)sulfamoyl)pyridin-2-yl)-4-methylpiperidine-4-carboxylic Acid] | – | – | 1360 | 272 | – |
| CC1(C(=O)O)CCN(c2cccc(S(=O)(=O)Nc3ccc(C(F)(F)F)c(-c4ccccc4C4CCCC4)n3)n2)CC1 [Example 379, 1-(6-(N-(6-(2-cyclopentylphenyl)-5-(trifluoromethyl)pyridin-2-yl)sulfamoyl)pyridin-2-yl)-4-methylpiperidine-4-carboxylic Acid] | – | – | 1080 | – | 646 |
| CCc1ccccc1-c1nc(S(=O)(=O)Nc2cccc(N3CCC(C)(C(=O)O)CC3)n2)ccc1C(F)(F)F [Example 380, 1-(6-(6-(2-ethylphenyl)-5-(trifluoromethyl)pyridine-2-sulfonamido)pyridin-2-yl)-4-methylpiperidine-4-carboxylic Acid] | – | – | 2660 | 42.3 | – |
| CC1(C(=O)O)CCN(c2cccc(S(=O)(=O)Nc3ccc(C(F)(F)F)c(-c4ccccc4OCC(F)(F)F)n3)n2)CC1 [Example 381, 4-methyl-1-(6-(N-(6-(2-(2,2,2-trifluoroethoxy)phenyl)-5-(trifluoromethyl)pyridin-2-yl)sulfamoyl)pyridin-2-yl)piperidine-4-carboxylic Acid] | – | – | 2510 | 284 | – |
| CC(C)COc1ccccc1-c1nc(NS(=O)(=O)c2cccc(N3CCC(C)(C(=O)O)CC3)n2)ccc1C(F)(F)F [Example 382, 1-(6-(N-(6-(2-isobutoxyphenyl)-5-(trifluoromethyl)pyridin-2-yl)sulfamoyl)pyridin-2-yl)-4-methylpiperidine-4-carboxylic Acid] | – | – | 711 | 504 | – |
| C[C@@]1(C(=O)O)CCCN(c2cccc(S(=O)(=O)Nc3ccc(C(F)(F)F)c(-c4ccccc4C4CCC4)n3)n2)C1 [Example 383, (R)-1-(6-(N-(6-(2-cyclobutylphenyl)-5-(trifluoromethyl)pyridin-2-yl)sulfamoyl)pyridin-2-yl)-3-methylpiperidine-3-carboxylic Acid] | – | – | 498 | – | – |
| CC(C)c1ccccc1-c1nc(NS(=O)(=O)c2cccc(N3CCC[C@@](C)(C(=O)O)C3)n2)ccc1C(F)(F)F [Example 384, (R)-1-(6-(N-(6-(2-isopropylphenyl)-5-(trifluoromethyl)pyridin-2-yl)sulfamoyl)pyridin-2-yl)-3-methylpiperidine-3-carboxylic Acid] | – | – | 501 | – | – |
| CC(C)c1ccccc1-c1nc(NS(=O)(=O)c2cccc(N3CCC[C@](C)(C(=O)O)C3)n2)ccc1C(F)(F)F [Example 385, (S)-1-(6-(N-(6-(2-isopropylphenyl)-5-(trifluoromethyl)pyridin-2-yl)sulfamoyl)pyridin-2-yl)-3-methylpiperidine-3-carboxylic Acid] | – | – | 810 | 668 | – |
| CC(C)COc1ccccc1-c1nc(NS(=O)(=O)c2cccc(N3CCCC(C)(C(=O)O)C3)n2)ccc1C(F)(F)F (stereo not shown) [Example 386, 1-(6-(N-(6-(2-isobutoxyphenyl)-5-(trifluoromethyl)pyridin-2-yl)sulfamoyl)pyridin-2-yl)-3-methylpiperidine-3-carboxylic Acid] | – | – | 605 | – | – |
| CCc1ccccc1-c1nc(NS(=O)(=O)c2cccc(N3CCCC(C)(C(=O)O)C3)n2)ccc1Cl (stereo not shown) [Example 387, 1-(6-(N-(5-chloro-6-(2-ethylphenyl)pyridin-2-yl)sulfamoyl)pyridin-2-yl)-3-methylpiperidine-3-carboxylic Acid] | – | – | 1630 | 588 | – |
| CC(C)c1ccccc1-c1nc(NS(=O)(=O)c2cccc(N3CCCC(C)(C(=O)O)C3)n2)ccc1Cl (stereo not shown) [Example 388, 1-(6-(N-(5-chloro-6-(2-isopropylphenyl)pyridin-2-yl)sulfamoyl)pyridin-2-yl)-3-methylpiperidine-3-carboxylic Acid] | – | – | 1020 | 928 | – |
| CC1(C(=O)O)CCCN(c2cccc(S(=O)(=O)Nc3ccc(Cl)c(-c4ccccc4C4CCC4)n3)n2)C1 (stereo not shown) [Example 389, 1-(6-(N-(5-chloro-6-(2-cyclobutylphenyl)pyridin-2-yl)sulfamoyl)pyridin-2-yl)-3-methylpiperidine-3-carboxylic Acid] | – | – | 1040 | 749 | – |
| CC1(C(=O)O)CCCN(c2cccc(S(=O)(=O)Nc3ccc(Cl)c(-c4ccccc4C(C)(C)C)n3)n2)C1 (stereo not shown) [Example 390, 1-(6-(N-(6-(2-(tert-butyl)phenyl)-5-chloropyridin-2-yl)sulfamoyl)pyridin-2-yl)-3-methylpiperidine-3-carboxylic Acid] | – | – | 761 | 889 | – |
| C[C@@]1(C(=O)O)CCCN(c2cccc(S(=O)(=O)Nc3ccc(Cl)c(-c4ccccc4C4CCC4)n3)n2)C1 [Example 391, (R)-1-(6-(N-(5-chloro-6-(2-cyclobutylphenyl)pyridin-2-yl)sulfamoyl)pyridin-2-yl)-3-methylpiperidine-3-carboxylic Acid] | – | – | 530 | 503 | – |
| CC(C)c1ccccc1-c1nc(NS(=O)(=O)c2cccc(N3CCC[C@@](C)(C(=O)O)C3)n2)ccc1Cl [Example 392, (R)-1-(6-(N-(5-chloro-6-(2-isopropylphenyl)pyridin-2-yl)sulfamoyl)pyridin-2-yl)-3-methylpiperidine-3-carboxylic Acid] | – | – | 527 | 460 | – |
| CCc1ccccc1-c1nc(NS(=O)(=O)c2cccc(N3CCC[C@@](C)(C(=O)O)C3)n2)ccc1Cl [Example 393, (R)-1-(6-(N-(5-chloro-6-(2-ethylphenyl)pyridin-2-yl)sulfamoyl)pyridin-2-yl)-3-methylpiperidine-3-carboxylic Acid] | – | – | 1040 | 680 | – |
| CCc1ccccc1-c1nc(NS(=O)(=O)c2cccc(N3CCC[C@@](C)(C(=O)O)C3)n2)ccc1C(F)(F)F [Example 394, (R)-1-(6-(N-(6-(2-ethylphenyl)-5-(trifluoromethyl)pyridin-2-yl)sulfamoyl)pyridin-2-yl)-3-methylpiperidine-3-carboxylic Acid] | – | – | 1050 | – | – |
| CC(C)COc1ccccc1-c1nc(NS(=O)(=O)c2cccc(N3CCC[C@@](C)(C(=O)O)C3)n2)ccc1C(F)(F)F [Example 396, (R)-1-(6-(N-(6-(2-isobutoxyphenyl)-5-(trifluoromethyl)pyridin-2-yl)sulfamoyl)pyridin-2-yl)-3-methylpiperidine-3-carboxylic Acid] | – | – | 845 | – | – |

— patent US11066369B2, “N-(pyridin-2-yl)pyridine-sulfonamide derivatives and their use in the treatment of disease” (Novartis AG, priority 2016, dated 2021)
